Laboratory results published in US20240228488A1 (TAKEDA PHARMACEUTICAL COMPANY LIMITED, priority 2021, published 2024).

Target: human activated kallikrein enzyme (Homo sapiens, UniProt P03952)
Assay: Plasma kallikrein inhibition, fluorogenic PFR-AMC substrate, 500 pM activated kallikrein format
Type: biochemical
Conditions: 500 pM activated kallikrein, 300 uM PFR-AMC, 30 min preincubation, 10 min reaction; read-out: Primary Dose Response Assay: Average EC50
Summary of the method: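 Fluorogenic readout (ex 380 / em 460 nm) after 10 min room-temperature reaction with 300 uM Pro-Phe-Arg-AMC substrate, following 30 min preincubation of inhibitors with 500 pM enzyme. Buffer: Tris pH 7.5, EDTA, NaCl, PEG-400, Triton X-100. Values given as EC50 ranges.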

human activated kallikrein enzyme, sequence (P03952 391-638 limits assumed): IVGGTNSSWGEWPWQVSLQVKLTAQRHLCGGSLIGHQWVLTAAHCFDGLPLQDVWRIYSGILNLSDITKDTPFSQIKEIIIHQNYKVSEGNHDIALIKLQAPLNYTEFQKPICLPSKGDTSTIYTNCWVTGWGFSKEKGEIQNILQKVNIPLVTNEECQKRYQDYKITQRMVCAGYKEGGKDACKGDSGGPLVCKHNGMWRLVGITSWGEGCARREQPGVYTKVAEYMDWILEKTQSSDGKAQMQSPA
human activated kallikrein enzyme, sequence (P03952 20-390 partner limits assumed): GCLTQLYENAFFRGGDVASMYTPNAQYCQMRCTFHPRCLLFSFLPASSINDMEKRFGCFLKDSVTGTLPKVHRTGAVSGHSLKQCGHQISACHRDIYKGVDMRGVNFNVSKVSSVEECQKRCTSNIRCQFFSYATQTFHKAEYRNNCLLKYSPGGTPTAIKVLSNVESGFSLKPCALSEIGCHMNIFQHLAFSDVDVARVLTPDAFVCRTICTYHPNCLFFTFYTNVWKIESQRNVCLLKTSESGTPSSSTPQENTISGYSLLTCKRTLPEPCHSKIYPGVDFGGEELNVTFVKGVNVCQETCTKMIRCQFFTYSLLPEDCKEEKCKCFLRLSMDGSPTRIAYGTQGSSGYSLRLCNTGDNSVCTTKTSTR

Structure (SMILES): O=C(Nc1nccc2nn(Cc3cn4cc(C5CC5)ccc4n3)cc12)[C@H]1C[C@@H]1c1cccc(Cl)c1 [Example 580, (1S,2S)-2-(3-chlorophenyl)-N-(2-((6-cyclopropylimidazo[1,2-a]pyridin-2-yl)methyl)-2H-pyrazolo[4,3-c]pyridin-4-yl)cyclopropane-1-carboxamide]
- EC50: 1 to 10 nM

Structure (SMILES): Cc1cc2nn(Cc3cn4cc(C5CC5)ccc4n3)cc2c(NC(=O)[C@H]2C[C@@H]2c2cccc(Cl)c2)n1 [Example 581, (1S,2S)-2-(3-chlorophenyl)-N-(2-((6-cyclopropylimidazo[1,2-a]pyridin-2-yl)methyl)-6-methyl-2H-pyrazolo[4,3-c]pyridin-4-yl)cyclopropane-1-carboxamide]
- EC50: 1 to 10 nM

Structure (SMILES): O=C(Nc1nccc2nn(Cc3cn4cc(C5CC5)ccc4n3)nc12)[C@H]1C[C@@H]1c1cccc(Cl)c1 [Example 583, (1S,2S)-2-(3-chlorophenyl)-N-(2-((6-cyclopropylimidazo[1,2-a]pyridin-2-yl)methyl)-2H-[1,2,3]triazolo[4,5-c]pyridin-4-yl)cyclopropane-1-carboxamide]
- EC50: 1 to 10 nM

Structure (SMILES): O=C(Nc1nccc2c1cnn2Cc1cn2cc(C3CC3)ccc2n1)[C@H]1C[C@@H]1c1cccc(Cl)c1 [Example 584, (1S,2S)-2-(3-chlorophenyl)-N-(1-((6-cyclopropylimidazo[1,2-a]pyridin-2-yl)methyl)-1H-pyrazolo[4,3-c]pyridin-4-yl)cyclopropane-1-carboxamide]
- EC50: 1000 to 6000 nM

Structure (SMILES): O=C(NCc1cn(Cc2cn3cc(C4CC4)cc(-n4cnnc4)c3n2)nn1)[C@H]1C[C@@H]1c1cccc(Cl)c1 [Example 591, (1S,2S)-2-(3-chlorophenyl)-N-((1-((6-cyclopropyl-8-(4H-1,2,4-triazol-4-yl)imidazo[1,2-a]pyridin-2-yl)methyl)-1H-1,2,3-triazol-4-yl)methyl)cyclopropane-1-carboxamide]
- EC50: 1 to 10 nM

Structure (SMILES): O=C(Nc1ncncc1OCc1cn2cc(C3CC3)ccc2n1)[C@H]1C[C@@H]1c1cccc(Cl)c1 [Example 596, (1S,2S)-2-(3-chlorophenyl)-N-(5-((6-cyclopropylimidazo[1,2-a]pyridin-2-yl)methoxy)pyrimidin-4-yl)cyclopropane-1-carboxamide]
- EC50: 10 to 100 nM

Structure (SMILES): O=C(Nc1cc2c(cn1)OCCN2Cc1cn2cc(C3CC3)ccc2n1)[C@H]1C[C@@H]1c1cccc(Cl)c1 [Example 597, (1S,2S)-2-(3-chlorophenyl)-N-(1-((6-cyclopropylimidazo[1,2-a]pyridin-2-yl)methyl)-2,3-dihydro-1H-pyrido[3,4-b][1,4]oxazin-7-yl)cyclopropane-1-carboxamide]
- EC50: 1 to 10 nM

Structure (SMILES): O=C(Nc1nnc(NCc2cn3cc(C4CC4)ccc3n2)s1)[C@H]1C[C@@H]1c1cccc(Cl)c1 [Example 606, (1S,2S)-2-(3-chlorophenyl)-N-(5-(((6-cyclopropylimidazo[1,2-a]pyridin-2-yl)methyl)amino)-1,3,4-thiadiazol-2-yl)cyclopropane-1-carboxamide]
- EC50: > 6000 nM

Structure (SMILES): O=C(Nc1noc(NCc2cn3cc(C4CC4)ccc3n2)n1)[C@H]1C[C@@H]1c1cccc(Cl)c1 [Example 615, (1S,2S)-2-(3-chlorophenyl)-N-(5-(((6-cyclopropylimidazo[1,2-a]pyridin-2-yl)methyl)amino)-1,2,4-oxadiazol-3-yl)cyclopropane-1-carboxamide]
- EC50: 1000 to 6000 nM

Structure (SMILES): CO[C@H]1C[C@H](c2cn3cc(C4CC4)ccc3n2)N(c2cc(NC(=O)[C@H]3C[C@@H]3c3cccc(Cl)c3)ncn2)C1 [Example 616, (1S,2S)-2-(3-chlorophenyl)-N-(6-((2R,4S)-2-(6-cyclopropylimidazo[1,2-a]pyridin-2-yl)-4-methoxypyrrolidin-1-yl)pyrimidin-4-yl)cyclopropane-1-carboxamide]
- EC50: > 6000 nM

Structure (SMILES): Cc1ccnc([C@H]2C[C@@H]2C(=O)Nc2nccc3nc(Cc4cn5cc(C6CC6)cc(N6CC(=O)N(C)C6=O)c5n4)oc23)n1 [Example 629, (1S,2S)—N-(2-((6-cyclopropyl-8-(3-methyl-2,4-dioxoimidazolidin-1-yl)imidazo[1,2-a]pyridin-2-yl)methyl)oxazolo[5,4-c]pyridin-4-yl)-2-(4-methylpyrimidin-2-yl)cyclopropane-1-carboxamide]
- EC50: < 1 nM

Structure (SMILES): Cc1ccnc([C@H]2C[C@@H]2C(=O)Nc2cn3c(Cc4cn5cc(C6CC6)cc(N6CC(=O)N(C)C6=O)c5n4)nnc3cn2)n1 [Example 630, (1S,2S)—N-(3-((6-cyclopropyl-8-(3-methyl-2,4-dioxoimidazolidin-1-yl)imidazo[1,2-a]pyridin-2-yl)methyl)-[1,2,4]triazolo[4,3-a]pyrazin-6-yl)-2-(4-methylpyrimidin-2-yl)cyclopropane-1-carboxamide]
- EC50: 1 to 10 nM

Structure (SMILES): Cc1ccnc([C@H]2C[C@@H]2C(=O)Nc2ncc3c(n2)N(Cc2cn4cc(C5CC5)cc(N5CC(=O)N(C)C5=O)c4n2)CCO3)n1 [Example 631]
- EC50: < 1 nM

Structure (SMILES): Cc1ccnc([C@H]2C[C@@H]2C(=O)Nc2ccc(F)c(NCc3cn4cc(C5CC5)cc(N5CC(=O)N(C)C5=O)c4n3)c2)n1 [Example 656, (1S,2S)—N-(3-(((6-cyclopropyl-8-(3-methyl-2,4-dioxoimidazolidin-1-yl)imidazo[1,2-a]pyridin-2-yl)methyl)amino)-4-fluorophenyl)-2-(4-methylpyrimidin-2-yl)cyclopropane-1-carboxamide]
- EC50: < 1 nM

Structure (SMILES): Cc1ccnc([C@H]2C[C@@H]2C(=O)Nc2ccc(F)c(OCc3cn4cc(C5CC5)cc(N5CC(=O)N(C)C5=O)c4n3)c2)n1 [Example 657, (1S,2S)—N-(3-((6-cyclopropyl-8-(3-methyl-2,4-dioxoimidazolidin-1-yl)imidazo[1,2-a]pyridin-2-yl)methoxy)-4-fluorophenyl)-2-(4-methylpyrimidin-2-yl)cyclopropane-1-carboxamide]
- EC50: < 1 nM

Structure (SMILES): Cc1ccnc([C@H]2C[C@@H]2C(=O)Nc2cc(F)c(Cl)c(NCc3cn4cc(C5CC5)cc(N5CC(=O)N(C)C5=O)c4n3)c2)n1 [Example 658, (1S,2S)—N-(4-chloro-3-(((6-cyclopropyl-8-(3-methyl-2,4-dioxoimidazolidin-1-yl)imidazo[1,2-a]pyridin-2-yl)methyl)amino)-5-fluorophenyl)-2-(4-methylpyrimidin-2-yl)cyclopropane-1-carboxamide]
- EC50: < 1 nM

Structure (SMILES): Cc1ccnc([C@H]2C[C@@H]2C(=O)Nc2cc(NCc3cn4cc(C5CC5)cc(N5CC(=O)N(C)C5=O)c4n3)c(F)cc2F)n1 [Example 659, (1S,2S)—N-(5-(((6-cyclopropyl-8-(3-methyl-2,4-dioxoimidazolidin-1-yl)imidazo[1,2-a]pyridin-2-yl)methyl)amino)-2,4-difluorophenyl)-2-(4-methylpyrimidin-2-yl)cyclopropane-1-carboxamide]
- EC50: 1 to 10 nM

Structure (SMILES): Cc1ccnc([C@H]2C[C@@H]2C(=O)Nc2cc(OCc3ccccc3)cc(OCc3cn4cc(C5CC5)cc(N5CC(=O)N(C)C5=O)c4n3)n2)n1 [Example 660, (1S,2S)—N-(4-(benzyloxy)-6-((6-cyclopropyl-8-(3-methyl-2,4-dioxoimidazolidin-1-yl)imidazo[1,2-a]pyridin-2-yl)methoxy)pyridin-2-yl)-2-(4-methylpyrimidin-2-yl)cyclopropane-1-carboxamide]
- EC50: 10 to 100 nM

Structure (SMILES): Cc1ccnc([C@H]2C[C@@H]2C(=O)Nc2cc(O)cc(OCc3cn4cc(C5CC5)cc(N5CC(=O)N(C)C5=O)c4n3)n2)n1 [Example 661, (1S,2S)—N-(6-((6-cyclopropyl-8-(3-methyl-2,4-dioxoimidazolidin-1-yl)imidazo[1,2-a]pyridin-2-yl)methoxy)-4-hydroxypyridin-2-yl)-2-(4-methylpyrimidin-2-yl)cyclopropane-1-carboxamide]
- EC50: 1 to 10 nM

Structure (SMILES): Cc1ccnc([C@H]2C[C@@H]2C(=O)Nc2cc(OCc3cn4cc(C5CC5)cc(N5CC(=O)N(C)C5=O)c4n3)nc(C(C)O)n2)n1 (stereo partly drawn) [Example 662, (1S,2S)—N-(6-((6-cyclopropyl-8-(3-methyl-2,4-dioxoimidazolidin-1-yl)imidazo[1,2-a]pyridin-2-yl)methoxy)-2-(1-hydroxyethyl)pyrimidin-4-yl)-2-(4-methylpyrimidin-2-yl)cyclopropane-1-carboxamide]
- EC50: < 1 nM

Structure (SMILES): COCc1cnc(NC(=O)[C@H]2C[C@@H]2c2nccc(C)n2)nc1OCc1cn2cc(C3CC3)cc(N3CC(=O)N(C)C3=O)c2n1 [Example 663, (1S,2S)—N-(4-((6-cyclopropyl-8-(3-methyl-2,4-dioxoimidazolidin-1-yl)imidazo[1,2-a]pyridin-2-yl)methoxy)-5-(methoxymethyl)pyrimidin-2-yl)-2-(4-methylpyrimidin-2-yl)cyclopropane-1-carboxamide]
- EC50: < 1 nM

Structure (SMILES): Cc1ccnc([C@H]2C[C@@H]2C(=O)Nc2ncc(CO)c(OCc3cn4cc(C5CC5)cc(N5CC(=O)N(C)C5=O)c4n3)n2)n1 [Example 664, (1S,2S)—N-(4-((6-cyclopropyl-8-(3-methyl-2,4-dioxoimidazolidin-1-yl)imidazo[1,2-a]pyridin-2-yl)methoxy)-5-(hydroxymethyl)pyrimidin-2-yl)-2-(4-methylpyrimidin-2-yl)cyclopropane-1-carboxamide]
- EC50: < 1 nM

Structure (SMILES): Cc1ccnc([C@H]2C[C@@H]2C(=O)Nc2nncc(N[C@H](C)c3cn4cc(C5CC5)cc(N5CC(=O)N(C)C5=O)c4n3)n2)n1 [Example 665, (1S,2S)—N-(5-(((R)-1-(6-cyclopropyl-8-(3-methyl-2,4-dioxoimidazolidin-1-yl)imidazo[1,2-a]pyridin-2-yl)ethyl)amino)-1,2,4-triazin-3-yl)-2-(4-methylpyrimidin-2-yl)cyclopropane-1-carboxamide]
- EC50: < 1 nM

Structure (SMILES): Cc1ccnc(C2CC2C(=O)Nc2cc(OCc3cn4cc(C5CC5)cc(N5CC(=O)N(C)C5=O)c4n3)c(C(F)(F)F)nn2)n1 (stereo not drawn) [Example 666, N-(5-((6-cyclopropyl-8-(3-methyl-2,4-dioxoimidazolidin-1-yl)imidazo[1,2-a]pyridin-2-yl)methoxy)-6-(trifluoromethyl)pyridazin-3-yl)-2-(4-methylpyrimidin-2-yl)cyclopropane-1-carboxamide]
- EC50: < 1 nM
